Results on one substance are retold here after patent publication US20210393735A1, “PHARMACEUTICAL COMPOSITION COMPRISING TEICOPLANIN” (GALENUS G.H. AG, priority 2018, published 2021).

Data set [1] can be described thus: Phase-1 open cross-over cohort study in healthy subjects: conventional vs novel teicoplanin dosage regimen (pharmacokinetics, tolerability). In kind it is in vivo, human (healthy subjects). How it is done: Teicoplanin: Conventional Dosage Regimen as Compared to the Novel Dosage Regimen
Phase-1 Study in Healthy Subjects
The study is performed as an open, cross over cohort-study after having received ethical approval and written consent by the participating 6 healthy subjects (3 males and 3 females). The principle study design of Outman et al (1990 [4]) is used with the following modification: 6 loading doses are followed by the maintenance dosing phase up to a total of 6 days.
In the first cross over comparative study, the following two dosage regimens are used:
Regimen A1: 6 loading dosages of 400 mg twice daily (bid) followed by 3 dosages of 400 mg once daily (total 6 days): total dosage 3600 mg
Regimen B1: first loading dose 800 mg followed by 4 dosages 400 mg bid, followed by 6 dosages 200 mg bid (total 6 days): total dosage 3600 mg.
In the second cross over comparative study, the following two dosage regimens are used:
Regimen A2: 6 loading dosages of 800 mg bid followed by 3 dosages of 800 mg once daily (total 6 days): total dosage 7200 mg
Regimen B2: 6 loading dosages of 800 mg bid followed by 6 dosages 400 mg bid (total 6 days): total dosage 7200 mg.

The subject of data set [2] is Gram-positive bacteria such as staphylococci (including methicillin-resistant strains), streptococci, enterococci and many anaerobic Gram-positive bacteria. The settings on record: Campoli-Richards et al. 1990 [2]; cited from earlier work.
The test system of data set [3] is clinical isolates of Clostridium difficile. The following applies: isolates from patients with hospital or community acquired CDI; Jamal, Rotimi 2016 [3]; cited from earlier work.
For data set [4] the following is noted: in vivo; cited from earlier work.
Where [5] appears, read: overall, no significant difference between regimens A and B in both studies.

Consider teicoplanin, for which, in data set [1] (1st and 2nd study), the “phlebitis or renal, hepatic, or ototoxicity” value is recorded as “no evidence”. In addition, the tolerability result in data set [1] (1st and 2nd study, both dosing regimens) is “generally well tolerated”. In addition, the trough levels in data set [1] (1st study, 1st day, regimen A1 (6 x 400 mg bid, then 3 x 400 mg once daily)) lay within 8 to 15 mg/L; in data set [1] (1st study, 1st day, regimen B1 (800 mg, then 4 x 400 mg bid, then 6 x 200 mg bid)) it was 18 to 25 mg/L; in data set [1] (1st study, day 4 to 6, regimen A1), 10 to 18 mg/L; in data set [1] (1st study, day 4 to 6, regimen B1) it was 20 to 30 mg/L; in data set [1] (2nd study, 1st day, regimen A2 (6 x 800 mg bid, then 3 x 800 mg once daily)), 14 to 24 mg/L; in data set [1] (2nd study, 1st day, regimen B2 (6 x 800 mg bid, then 6 x 400 mg bid)), 25 to 34 mg/L. The trough levels lay in the range of 18 to 26 mg/L in data set [1] (2nd study, day 4 to 6, regimen A2) and 30 to 38 mg/L in data set [1] (2nd study, day 4 to 6, regimen B2). For the same substance, in data set [1] (at the 1st day (first study only) and from day 4 on), the “higher trough levels with novel vs conventional dosage regimen” value is on record as “about 50%”. Besides, the “lightheadedness during the infusion” value in data set [1] (during infusion of some, but not all, doses, 6 healthy subjects) is on record as “Two subjects experience transient lightheadedness”. The substance also registered a renal clearance in data set [1] (setting [5]) of 0.19 ± 0.015 mL/min/kg. Also, the t1/2 in data set [1] (setting [5]) is reported as 157+93 h. The substance further gave a total clearance in data set [1] (setting [5]) of 0.21 ± 0.018 mL/min/kg. Also, in data set [2], the susceptibility in vitro entry is recorded as “susceptible”. The “activity against clinical isolates” value in data set [3] is on record as “active”. Moreover, in data set [4], the “terminal half-life, mean (±SD)” value is recorded as 157 (±93) hours (h). Also, the “terminal half-life, median (range)” value in data set [4] is reported as 168 (111-278) h.
